Structures can show the parent of a compound that is named as a salt.
How the values were obtained:
[1] = system: T. b. r. STIB 900; test: STIB900 mouse model for acute African trypanosomiasis; format: in vivo; settings: for responders at 25 mg/kg / responders at 5 mg/kg: Mus musculus, 1440 h, read-out: Cures; for Survival / Survival (days): average days of mice survival; for Cures: number of mice that survive and are parasite free for 60 days
[2] = system: Plasmodium falciparum K1; test: In vitro assay with P. f. K1 strain; format: cell-based; settings: K1, read-out: P. f. IC50
[3] = system: Trypanosoma brucei rhodesiense STIB900; test: microbe, parasite or virus in culture; settings: RHODESIENSE|STIB900, read-out: T. b. r. IC50

| Compound | responders at 25 mg/kg ([1]; po) | Survival ([1]; po, 4 × 25 mg/kg) | responders at 5 mg/kg ([1]; ip) | further results |
| --- | --- | --- | --- | --- |
| CO/N=C(/N)c1ccc(-c2cnc(-c3ccc(/C(N)=N\OC)cc3)s2)cc1.Cl.Cl [7a, 2,5-Bis-(4-N-methoxyamidinophenyl)thiazole dihydrochloride] | 0% | 41 days | – | – |
| CO/N=C(\N)c1ccc(-c2cnc(-c3ccc(/C(N)=N\OC)cn3)s2)nc1 [7g, 2,5-Bis(3-N-methoxyamidinopyridin-6-yl)thiazole dihydrochloride] | 0% | – | – | – |
| CO/N=C(\N)c1ccc(-c2ccc(-c3ccc(/C(N)=N/OC)cn3)o2)cc1 [IId, reference compound] | – | – | – | Survival (days) ([1]; po, 4 × 5 mg/kg): >60 >60 days; Cures ([1]; po, 4 × 5 mg/kg): 4/4 4/4; Survival (days) ([1]; po, 4 × 25 mg/kg): >60 >60 days; Cures ([1]; po, 4 × 25 mg/kg): 4/4 4/4 |
| Cl.Cl.N/C(=N\O)c1ccc(-c2cnc(-c3ccc(/C(N)=N\O)nc3)s2)cn1 [6e, 2,5-Bis-(2-N-hydroxyamidinopyridin-5-yl)thiazole dihydrochloride] | 25% | >37.5 days | – | – |
| N=C(N)c1ccc(OCCCCCOc2ccc(C(=N)N)cc2)cc1 [I, pentamidine, reference compound] | – | – | 50% | – |
| Cl.Cl.N=C(N)c1ccc(-c2cnc(-c3ccc(C(=N)N)nc3)s2)cn1 [5e, 2,5-Bis(2-amidinopyridin-5-yl)thiazole dihydrochloride] | – | – | 0% | Survival ([1]; ip, 4 × 5 mg/kg): 50.5 days |
| Cl.Cl.N/C(=N\O)c1ccc(-c2ncc(-c3ccc(/C(N)=N\O)nc3)s2)cc1 [6d, 2-(4-N-hydroxyamidinophenyl)-5-(2-N-hydroxyamidinopyridin-5yl)thiazole dihydrochloride] | 0% | 36.75 days | – | – |
| Cl.Cl.N/C(=N\O)c1ccc(-c2cnc(-c3ccc(/C(N)=N\O)cn3)s2)nc1 [6g, 2,5-Bis(3-N-hydroxyamidinopyridin-6-yl)thiazole dihydrochloride] | 0% | 9 days | – | – |
| Cl.Cl.N/C(=N\O)c1ccc(-c2cnc(-c3ccc(/C(N)=N/O)nc3)s2)cc1 [6b, 5-(4-N-hydroxyamidinophenyl)-2(2-N-hydroxyamidinopyridin-5-yl)thiazole dihydrochloride] | 0% | 37.5 days | – | – |
| CONC(=N)c1ccc(-c2ccc(-c3ccc(C(=N)NOC)cc3)o2)cc1 [IIb, Pafuramidine, reference compound] | – | > 60 days | – | Cures ([1]; po, 4 × 5 mg/kg): 0/4; Cures ([1]; po, 4 × 25 mg/kg): 4/4 |
| Cl.Cl.N/C(=N\O)c1ccc(-c2cnc(-c3ccc(/C(N)=N\O)cn3)s2)cc1 [6c, 5-(4-N-hydroxyamidinophenyl)-2-(3-N-hydroxyamidinopyridin-6-yl)thiazole dihydrochloride] | 0% | 24 days | – | – |
| Cl.Cl.N=C(N)c1ccc(-c2ncc(-c3ccc(C(=N)N)nc3)s2)cc1 [5d, 2-(4-Amidinophenyl)-5-(2-amidinopyridin-5-yl)thiazole dihydrochloride] | – | – | 0% | Survival ([1]; ip, 4 × 5 mg/kg): >36 days |
| N=C(N)c1ccc(-c2cnc(-c3ccc(C(=N)N)nc3)s2)cc1 [5b, 5-(4-Amidinophenyl)-2-(2-amidinopyridin-5-yl)thiazole dihydrochloride] | – | – | 0% | – |
| CO/N=C(\N)c1ccc(-c2cnc(-c3ccc(/C(N)=N\OC)cn3)s2)cc1.Cl.Cl [7c, 5-(4-N-methoxyamidinophenyl)-2-(3-N-methoxyamidinopyridin-6-yl)thiazole dihydrochloride] | 0% | 35 days | – | – |
| CO/N=C(\N)c1ccc(-c2cnc(-c3ccc(/C(N)=N\OC)nc3)s2)cn1.Cl.Cl [7e, 2,5-Bis(2-N-methoxyamidinopyridin-5-yl)thiazole dihydrochloride] | 25% | >47.25 days | – | – |
| N/C(=N/O)c1ccc(-c2cnc(-c3ccc(/C(N)=N\O)cc3)s2)cc1 [6a, 2,5-Bis-(4-N-hydroxyamidinophenyl)thiazole dihydrochloride] | 0% | – | – | – |
| N=C(N)c1ccc(-c2ccc(-c3ccc(C(=N)N)cn3)o2)cc1 [IIc, azafuramidine, reference compound] | – | – | 75% | IC50 [2]: 6.5 nM; Survival ([1]; ip, 4 × 5 mg/kg): >54.5 days; IC50 [3]: 7 nM |
| Cl.Cl.N=C(N)c1ccc(-c2cnc(-c3ccc(C(=N)N)cc3)s2)cc1 [5a, 2,5-Bis(4-amidinophenyl)thiazole dihydrochloride] | – | – | 25% | Survival ([1]; ip, 4 × 5 mg/kg): >44.5 days; Cures ([1]; ip, 4 × 5 mg/kg, 5 mg/kg): 1 of four and one of four |
| Cl.Cl.N=C(N)c1ccc(-c2cnc(-c3ccc(C(=N)N)cn3)s2)nc1 [5g, 2,5-Bis-(3-amidinopyridin-6-yl)thiazole dihydrochloride] | – | – | 0% | Survival ([1]; ip, 4 × 5 mg/kg): 21.5 days |
| N=C(N)c1ccc(-c2cnc(-c3ccc(C(=N)N)cn3)s2)cc1 [5c, 5-(4-Amidinophenyl)-2-(3-amidinopyridin-6-yl)thiazole dihydrochloride] | – | – | 0% | – |
| CO/N=C(\N)c1ccc(-c2cnc(-c3ccc(/C(N)=N/OC)nc3)s2)cc1.Cl [7b, 5-(4-N-methoxyamidinophenyl)-2-(2-N-methoxyamidinopyridin-5-yl)thiazole dihydrochlodide] | 0% | 42.75 days | – | – |
| N=C(N)c1ccc(-c2ccc(-c3ccc(C(=N)N)cc3)o2)cc1 [IIa, furamidine] | – | – | – | Survival ([1]; ip, 4 × 5 mg/kg): >46 days; IC50 [3]: 3.2 nM |
| N=C(N)c1ccc(-c2ncc(-c3ccc(C(=N)N)nc3)s2)nc1 [5f, 2-(3-Amidinopyridin-6-yl)-5-(2-amidinopyridin-5-yl)thiazole dihydrochloride] | – | – | 0% | – |
| N=C(N)c1ccc(-c2ccc(-c3ccc(C(=N)N)cc3)s2)cc1 [IIe, reference compound] | – | – | 50% | Survival ([1]; ip, 4 × 5 mg/kg): >48.75 days |
